The numbers were not newly measured in patent EP0433909A2, “Formulation” (CIBA-GEIGY AG, priority 1989, dated 1991), which cites them from elsewhere.

For this data set the following is noted: for solubilities: in water, K. Wellinga et al., J. Agr. Food Chem. Vol 21, No.3 (1973), p.350.

On to `O=C(NC(=O)c1c(Cl)cccc1Cl)Nc1ccc(Cl)c(Cl)c1` [1-(2,6-dichlorobenzoyl)-3-(3,4-dichlorophenyl)-urea], for which the solubilities was not above 1 ppm. `O=C(NC(=O)c1c(Cl)cccc1Cl)Nc1ccc(Cl)cc1` [1-(4-chlorophenyl)-3-(2,6-dichlorobenzoyl)-urea]: the solubilities is not above 1 ppm. As for `O=C(NC(=O)c1c(F)cccc1F)Nc1ccc(Cl)cc1` [1-(4-chlorophenyl)-3-(2,6-difluorobenzoyl)urea], the solubility in water result (The Merck Index, 9th Ed. (1976), p. 416) was “about 0.3 ppm”.
